Assay results taken from patent US5608095A, “Alkyl-4-silyl-phenols and esters thereof as antiatherosclerotic agents” (Hoechst Marion Roussel, Inc., priority 1996, dated 1997).
Where two headings read alike, the source gives them in different places.

Key:
[1] = HPLC quantitation of compound and metabolite concentration in rabbit serum and liver; assay type: in vivo, female New Zealand White rabbits; conditions: diet 0.4%, 7 days
Description: (§1) Five independent experiments were performed in the following manner. […] Female New Zealand White rabbits (Hazelton, ~2.0-2.3 kg) were fed 0.2% cholesterol enriched rabbit chow (Purina #5322) with or without 0.4% MDL compound (except, MDL 108,804 at 0.26% and MDL 103,491 repeated at 0.6%). The MDL compounds were solubilized in 100% ethanol. MDL 108,208 was not soluble in 100% ethanol, but it was soluble in diethyl ether:ethanol (3:2 by volume). The chow was sprayed with the MDL mixtures and allowed to dry overnight in a chemical fume hood. Control chow was sprayed with ethanol. Rabbits were fed 100 grams food per day for 7 days (0.6% MDL 103,491 were fed for 14 days); water was available ad libitum. On day 7, rabbits (fasted overnight) were bled (~2 mL) from marginal ear vein; 0.6% MDL 103,491 treated rabbits were tested on day 14. They were euthanized by carbon dioxide overdose. The total body and liver weights were recorded in grams. Food consumption was recorded as grams.cndot.day^-1 .cndot.rabbit^-1. Aliquots of fresh serum were used for clinical chemistries, lipoprotein cholesterol determination, thiobarbituric acid reactive substances (TBARS) and compound and metabolite concentrations in serum. Livers (~5 gram aliquots) were frozen at -20° C. for compound and metabolite concentration determination at a later time.
Serum and liver concentrations of parent compounds and the metabolites, bisphenol and diphenoquinone, were determined by reverse phase HPLC using a Waters 990 Powerline system. Livers (1 gram) were homogenized with 5.0 mL PBS, pH 7.4, using a Polytron tissue homogenizer at setting 5 for 20-30 seconds. Serum or liver homogenates were extracted as follows: 100 μL of either serum or homogenate were added to 2.0 mL diethyl ether:ethanol (3:1) while vortexing the tube. The sample tubes were capped and centrifuged for 10 min at 5° C. at 3500 rpm in a Beckman GPKR centrifuge with a GH 3.7 rotor. The supernatants were transferred to clean tubes and dried under N2. Samples were reconstituted with 200 μL of acetonitrile:hexane:0.1M ammonium acetate (90:6.5:3.5, by vol.). Then, 100 μL were injected onto a Waters Deltapak C18-300 Å column, and eluted with an 83% acetonitrile:17% water mobile phase at a flow rate of 1.5 mL/min. Absrobances at the wavelengths of 240, 254, and 420 nm were recorded. Compound concentrations were calculated from known quantities of authentic parent compounds after correction for recovery; the range of recovery from spiked samples was 40 to 100%. The lowest detectable limit for this class of compounds was ~0.5 μg/mL. Concentrations were calculated as μg/mL of serum and μg/g of liver.

[2] = system: serum cholesterol, LDL, HDL, triglycerides; test: Serum lipids and lipoprotein cholesterol in cholesterol-fed female New Zealand White rabbits; assay type: in vivo; conditions: Oryctolagus cuniculus, po, 168 h, rabbit serum, diet 0.4%, 7 days
Description: as §1
Blood was allowed to clot at room temperature for 30 minutes. Serum was obtained after centrifugation for 10 min at 5° C. at 3000 rpm in a Beckman GPKR centrifuge with a GH rotor. Fresh serum was analyzed by a COBAS MIRA autoanalyzer (Roche Diagnostics) using Roche diagnostic reagents for total cholesterol (CHOL, kit #44334) and triglyceride (TG, kit #44120). Cholesterol and triglycerides were calculated as mg/dL.
Lipoprotein fractions (very low density lipoprotein, VLDL, low density lipoprotein, LDL and high density lipoprotein, HDL) were separated on a Sepharose 6HR column (1×30 cm, Pharmacia) attached to a Waters Powerline HPLC system. Fifty μL of serum were injected onto the column and eluted with phosphate buffered saline, pH 7.4, at a flow rate of 0.5 mL/min. Cholesterol reagent (Roche Diagnostics, kit #44334, diluted with 20 mL water and then with 20 mL of 0.9% saline) was added at 0.2 mL/min to the post column eluant and incubated in a knitted PFTE Kratos reaction coil (Applied Biosystems) at 37° C. for 5 min. Absorbance was measured at 500 nm. The lipoprotein subfractions were quantitated as follows: [formula]

[3] = Food consumption, body and liver weight in cholesterol-fed rabbits; assay type: in vivo, female New Zealand White rabbits; conditions: diet 0.4%, 7 days
Description: as §1

[4] = Solubility in solvent for spraying on chow; assay type: physicochemical
Description: as §1

[5] = system: oxidation of serum lipids; test: TBARS assay, serum of cholesterol-fed rabbits; assay type: in vivo, female New Zealand White rabbits; conditions: Oryctolagus cuniculus, po, 168 h; rabbit serum, diet 0.4%, 7 days; read-out: TBARS, percent of control
Description: as §1
TBARS are a qualitative indication of the oxidation of lipids in a sample. In this assay the oxidation of serum lipids is initiated with CuSO4, resulting in the formation of aldehydes, such as malondialdehyde (MDA). Upon incubation with thiobarbituric acid, the absorbance of the aldehydes can be detected at 530-540 nm. TBARS values which are lower than control serum values indicate the relative ability of a compound to inhibit the oxidation. TBARS were measured as follows: 50 μL of serum were mixed with 50 μL of 0.9% saline and 400 μL of a 5 mM CuSO4 solution and incubated at 37° C. for 5 hr. The reactions were stopped by addition of 1.0 mL of 20% trichloroacetic acid. Then 1.0 mL of 0.67% thiobarbituric acid in 0.05N sodium hydroxide was added, mixed, and the samples incubated for 30 min at 90° C. Samples were centrifuged briefly to pellet undissolved material, and the supernatants were transferred to a 96-well microtiter plate. Absorbances were measured at 540 nm using a Biotek model EL311 microplate reader. The nmoles of MDA produced were calculated from a standard curve of 0 to 10 nmoles of MDA prepared from malonaldehyde bis(dimethylacetal). Serum samples from treated rabbits were compared to serum samples from control rabbits that received no MDL compound.

COc1ccc([Si](C)(COc2cc(C(C)(C)C)c(O)c(C(C)(C)C)c2)c2ccc(OC)cc2)cc1 [MDL 108,208]
Liver Parent = parent compound concentration ([1]; rabbit liver): 0 µg/g | Serum Parent = parent compound concentration ([1]; rabbit serum): 0 µg/mL | response vs control in vivo at 0.4 % ([2]; read-out: HDL cholesterol, percent of control): 97% | response vs control in vivo at 0.4 % ([2]; read-out: LDL cholesterol, percent of control): 117% | response vs control in vivo at 0.4 % ([2]; read-out: TRIG (triglycerides), percent of control): 107% | response vs control in vivo at 0.4 % ([2]; read-out: chol tot. (total cholesterol), percent of control): 109% | food (grams eaten per day per rabbit), percent of control [3]: 100% | body wt., percent of control ([3]; rabbit): 97% | lw/bw (liver weight/body weight), percent of control ([3]; rabbit): 103% | solubility in 100% ethanol ([4]; 100% ethanol): not soluble | solubility in diethyl ether:ethanol ([4]; diethyl ether:ethanol (3:2 by volume)): soluble | response vs control in vivo at 0.4 % [5]: 89%
